Measurements: publication PMC11954145, “Antimicrobial and ADME properties of methoxylated, methylated and nitrated 2-hydroxynaphthalene-1 carboxanilides” (ADMET & DMPK, 2025)
≈ marks a conversion by molar mass, not a printed value. Read-outs that look alike come from different tables or passages of the source.

What was measured:
[1] = Lipophilicity determination by RP-HPLC (log k, log D); assay type: physicochemical; conditions: for log D6.5: RP-HPLC C18, MeOH 72 % / acetate-buffered saline pH 6.5; for log D7.4: RP-HPLC C18, MeOH 72 % / acetate-buffered saline pH 7.4; for log k (logarithm of the capacity factor): RP-HPLC C18, MeOH 72 % / water 28 %
Excerpt: An HPLC system Agilent 1200 equipped with a DAD detector (Agilent, Santa Clara, CA, USA) was used. A chromatographic column Symmetry® C18 5 μm, 4.6×250 mm, part No. WAT054275 (Waters Corp., Milford, MA, USA) was used. The HPLC separation process was monitored and evaluated with EZChrom Elite software ver. 3.3.2 (Agilent). Isocratic elution by a mixture of MeOH p.a. (72 %) and H2O-HPLC Mili-Q grade (28 %) as a mobile phase was used for the determination of capacity factor k. Isocratic elution by a mixture of MeOH p.a. (72 %) and acetate-buffered saline (pH 7.4 and pH 6.5) (28 %) as a mobile phase was used for the determination of distribution coefficients expressed as D7.4 and D6.5. The total flow of the column was 1.0 mL min^-1, the injection volume was 20 μL, the column temperature was 40 °C, and the sample temperature was 10 °C. The detection wavelength of 210 nm was chosen. A KI methanolic solution was used to determine the dead times (tD). Retention times (tR) were measured in minutes. The capacity factors k were calculated according to the formula k = (tR–tD)/tD, where tR is the retention time of the solute, and tD is the dead time obtained using an unretained analyte. The distribution coefficients DpH were calculated according to the formula DpH = (tR–tD)/tD. Each experiment was repeated three times.
The capacity factor and distribution coefficients were measured by RP-HPLC on a C18 column with methanol as an organic modifier of the mobile phase. In addition to the experimental lipophilicities, predicted log P values were also calculated using ACD/Percepta, see Table 1. […] The values of σ(Ar) are found in a wide range from 0.01 to 1.36, so the compounds contain substituents with both electron-donating and slightly electron-withdrawing properties.

S. aureus ATCC 29213 = assay: Antibacterial screening, broth microdilution MIC; assay type: cell-based; conditions: Staphylococcus aureus, read-out: MIC S. aureus
MRSA 63718 = assay: Antibacterial screening, broth microdilution MIC; assay type: cell-based, methicillin-resistant S. aureus; conditions: Staphylococcus aureus, clinical isolate, 24 h at 37 °C, read-out: MIC MRSA 63718
MRSA SA 630 = assay: Antibacterial screening, broth microdilution MIC; assay type: cell-based, methicillin-resistant S. aureus; conditions: Staphylococcus aureus, read-out: MIC MRSA SA 630
MRSA SA 3202 = assay: Antibacterial screening, broth microdilution MIC; assay type: cell-based, methicillin-resistant S. aureus; conditions: Staphylococcus aureus, read-out: MIC MRSA SA 3202
[2] = system: Enterococcus faecalis ATCC 29212; assay: Antibacterial screening, broth microdilution MIC; assay type: cell-based; conditions: ATCC29212, ATCC 29212, 24 h at 37 °C, read-out: MIC E. faecalis
VRE 342B = assay: Antibacterial screening, broth microdilution MIC; assay type: cell-based, vancomycin-resistant E. faecalis; conditions: Enterococcus, vanA isolate, 24 h at 37 °C, read-out: MIC VRE 342B
VRE 725B = assay: Antibacterial screening, broth microdilution MIC; assay type: cell-based, vancomycin-resistant E. faecalis; conditions: Enterococcus, vanA isolate, 24 h at 37 °C, read-out: MIC VRE 725B
VRE 368 = assay: Antibacterial screening, broth microdilution MIC; assay type: cell-based, vancomycin-resistant E. faecalis; conditions: Enterococcus, vanA isolate, 24 h at 37 °C, read-out: MIC VRE 368
E. coli ATCC 25922 = assay: Antibacterial screening, broth microdilution MIC; assay type: cell-based; conditions: Escherichia coli, ATCC25922; ATCC 25922, 24 h at 37 °C
[3] = system: Mycobacterium tuberculosis ATCC 25177/H37Ra; assay: Antimycobacterial screening, broth dilution MIC (Alamar blue); assay type: cell-based; conditions: 336 h, read-out: MIC M. tuberculosis
Protocol: The evaluation of in vitro antimycobacterial activity of the compounds was performed against Mycobacterium tuberculosis ATCC 25177/H37Ra, Mycobacterium kansasii DSM 44162 and Mycobacterium smegmatis ATCC 700084.
The broth dilution micro-method in Middlebrook 7H9 medium (Difco, Lawrence, KS, USA) supplemented with ADC Enrichment (Difco) was used to determine the minimum inhibitory concentration (MIC) as previously described. […] The final concentrations of the evaluated compounds, ranging from 256 to 0.125 μg mL^-1, were obtained by twofold serial dilution of the stock solution in a microtiter plate with a sterile medium. Bacterial inocula were prepared by transferring colonies from culture to sterile water. The plate was inoculated by tested microorganisms. The final concentration of bacterial cells was 1.5×10^6 for M. tuberculosis and 10^5 cells in a microtiter plate for other mycobacteria. Isoniazid and rifampicin (Sigma) were used as reference antimycobacterial drugs. Drug-free controls, sterility controls, and controls consisting of medium and DMSO alone were included. The plates were incubated for a defined time at an appropriate temperature (3 days at 37 °C for M. smegmatis, and 14 days at 37 °C for M. tuberculosis and M. kansasii). […] The MICs against M. tuberculosis were evaluated by Alamar blue (Oxoid). After incubation, 10 % of Alamar blue was added to each well, and the plate was incubated for 24 h. The MIC values were assessed as the lowest concentration of the tested compounds, which prevented changing blue resazurin to pink resorufin. The experiments were repeated three times. The minimum inhibitory concentrations (MICs) were defined as the lowest concentration of the compound at which no visible bacterial growth was observed. The MIC value is routinely and widely used in bacterial assays and is a standard detection limit according to the CLSI [60].

[4] = system: Mycobacterium kansasii DSM 44162; assay: Antimycobacterial screening, broth dilution MIC; assay type: cell-based; conditions: DSM44162, 336 h, DSM 44162, 14 days at 37 °C, read-out: MIC M. kansasii
[5] = system: Mycobacterium smegmatis ATCC 700084; assay: Antimycobacterial screening, broth dilution MIC; assay type: cell-based; conditions: Mycolicibacterium smegmatis, ATCC700084, 72 h; ATCC 700084, 3 days at 37 °C; read-out: MIC M. smegmatis
[6] = ATCC29213, ATCC 29213, 24 h at 37 °C
[7] = clinical isolate, 24 h at 37 °C
[8] = H37Ra, 14 days at 37 °C, Alamar blue

Compound: COc1cc(NC(=O)c2c(O)ccc3ccccc23)cc(OC)c1OC [Compound 7, 2-Hydroxy-N-(3,4,5-trimethoxyphenyl)naphthalene-1-carboxamide]
- log D6.5 [1]: -0.1053
- log D7.4 [1]: -0.0948
- log k (logarithm of the capacity factor) [1]: -0.1150
- MIC (S. aureus ATCC 29213; [6]): 838 µM (≈ 296 µg/mL)
- MIC (MRSA 63718): 838 µM (≈ 296 µg/mL)
- MIC (MRSA SA 630; [7]): 838 µM (≈ 296 µg/mL)
- MIC (MRSA SA 3202; [7]): 419 µM (≈ 148 µg/mL)
- MIC [2]: 724 µM (≈ 256 µg/mL)
- MIC (VRE 342B): 724 µM (≈ 256 µg/mL)
- MIC (VRE 725B): 724 µM (≈ 256 µg/mL)
- MIC (VRE 368): 724 µM (≈ 256 µg/mL)
- MIC (E. coli ATCC 25922): 838 µM (≈ 296 µg/mL)
- MIC [3]: 210 µM (≈ 74.2 µg/mL)
- MIC [4]: 838 µM (≈ 296 µg/mL)
- MIC [5]: 210 µM (≈ 74.2 µg/mL)

Compound: Cc1ccccc1NC(=O)c1c(O)ccc2ccccc12 [Compound 8, 2-hydroxy-N-(2-methylphenyl)naphthalene-1-carboxamide]
- log D6.5 [1]: 0.0745
- log D7.4 [1]: 0.0838
- log k (logarithm of the capacity factor) [1]: 0.0858
- MIC (S. aureus ATCC 29213; [6]): 462 µM (≈ 128 µg/mL)
- MIC (MRSA 63718): 462 µM (≈ 128 µg/mL)
- MIC (MRSA SA 630; [7]): 462 µM (≈ 128 µg/mL)
- MIC (MRSA SA 3202; [7]): 462 µM (≈ 128 µg/mL)
- MIC [2]: 462 µM (≈ 128 µg/mL)
- MIC (VRE 342B): 462 µM (≈ 128 µg/mL)
- MIC (VRE 725B): 462 µM (≈ 128 µg/mL)
- MIC (VRE 368): 462 µM (≈ 128 µg/mL)
- MIC (E. coli ATCC 25922): 462 µM (≈ 128 µg/mL)
- MIC [3, 8]: 231 µM (≈ 64.1 µg/mL)
- MIC [4]: 115 µM (≈ 31.9 µg/mL)
- MIC [5]: 462 µM (≈ 128 µg/mL)

Compound: Cc1ccc(C)c(NC(=O)c2c(O)ccc3ccccc23)c1 [Compound 11, N-(2,5-Dimethylphenyl)-2-hydroxynaphthalene-1-carboxamide]
- log D6.5 [1]: 0.2455
- log D7.4 [1]: 0.2514
- log k (logarithm of the capacity factor) [1]: 0.2486
- MIC (S. aureus ATCC 29213; [6]): 110 µM (≈ 32 µg/mL)
- MIC (MRSA 63718): 110 µM (≈ 32 µg/mL)
- MIC (MRSA SA 630; [7]): 110 µM (≈ 32 µg/mL)
- MIC (MRSA SA 3202; [7]): 110 µM (≈ 32 µg/mL)
- MIC [2]: 879 µM (≈ 256 µg/mL)
- MIC (VRE 342B): 879 µM (≈ 256 µg/mL)
- MIC (VRE 725B): 879 µM (≈ 256 µg/mL)
- MIC (VRE 368): 879 µM (≈ 256 µg/mL)
- MIC (E. coli ATCC 25922): 879 µM (≈ 256 µg/mL)
- MIC [3, 8]: 439 µM (≈ 128 µg/mL)
- MIC [4]: 110 µM (≈ 32 µg/mL)
- MIC [5]: 220 µM (≈ 64.1 µg/mL)

Compound: Cc1cccc(C)c1NC(=O)c1c(O)ccc2ccccc12 [Compound 12, N-(2,6-Dimethylphenyl)-2-hydroxynaphthalene-1-carboxamide]
- log D6.5 [1]: 0.0838
- log D7.4 [1]: 0.0923
- log k (logarithm of the capacity factor) [1]: 0.0785
- MIC (S. aureus ATCC 29213; ATCC29213, 24 h): 439 µM (≈ 128 µg/mL)
- MIC (MRSA 63718): 879 µM (≈ 256 µg/mL)
- MIC (MRSA SA 630; 24 h): 439 µM (≈ 128 µg/mL)
- MIC (MRSA SA 3202; 24 h): 439 µM (≈ 128 µg/mL)
- MIC [2]: 879 µM (≈ 256 µg/mL)
- MIC (VRE 342B): 879 µM (≈ 256 µg/mL)
- MIC (VRE 725B): 879 µM (≈ 256 µg/mL)
- MIC (VRE 368): 879 µM (≈ 256 µg/mL)
- MIC (E. coli ATCC 25922): 879 µM (≈ 256 µg/mL)
- MIC [3, 8]: 439 µM (≈ 128 µg/mL)
- MIC [4]: 879 µM (≈ 256 µg/mL)
- MIC [5]: 879 µM (≈ 256 µg/mL)
